# “And” between values parts separate entries of the source, which are not always exact repeats. Identical values can stand only once. Toxic doses and inconclusive results are not listed.
# Tested on: P388 leukemia ip, CD2F1 mice, survival T/C
# Experiment: NCI In Vivo Anticancer Drug Screen. Data for tumor model P388 Leukemia (intraperitoneal) in CD2F1 (CDF1) mice
# Settings: endpoint: median survival time, higher = longer survival
# Summary of the method: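 Mice carrying the transplanted tumor received test compound or vehicle. Survival was recorded in each group, and the value is the treated-group measurement divided by that of the vehicle-treated control group.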
# [1] = dose: 50.0 mg/kg/injection, schedule: Q01DX005 (ip), vehicle: saline with Tween-80
# [2] = dose: 100.0 mg/kg/injection, schedule: Q01DX005 (ip), vehicle: saline with Tween-80
# [3] = dose: 200.0 mg/kg/injection, schedule: Q01DX005 (ip), vehicle: saline with Tween-80
# [4] = dose: 100.0 mg/kg/injection, schedule: Q04DX003 (ip), vehicle: saline with Tween-80
# [5] = dose: 200.0 mg/kg/injection, schedule: Q04DX003 (ip), vehicle: saline with Tween-80
# [6] = dose: 100.0 mg/kg/injection, schedule: Q01DX009 (ip), vehicle: saline with Tween-80
# [7] = dose: 6.25 mg/kg/injection, schedule: Q01DX009 (ip), vehicle: water
# [8] = dose: 12.5 mg/kg/injection, schedule: Q01DX009 (ip), vehicle: water
# [9] = dose: 50.0 mg/kg/injection, schedule: Q04DX003 (ip), vehicle: saline
# [10] = dose: 100.0 mg/kg/injection, schedule: Q04DX003 (ip), vehicle: saline
# [11] = dose: 200.0 mg/kg/injection, schedule: Q04DX003 (ip), vehicle: saline
# [12] = dose: 60.0 mg/kg/injection, schedule: Q01DX005 (ip), vehicle: saline with Tween-80
# [13] = dose: 120.0 mg/kg/injection, schedule: Q01DX005 (ip), vehicle: saline with Tween-80
# [14] = dose: 240.0 mg/kg/injection, schedule: Q01DX005 (ip), vehicle: saline with Tween-80
smiles,measurement,setting,value
CCCCCCCCCCSCC(CO)NC(=O)/C=C/c1c(C)[nH]c(=O)[nH]c1=O (stereo not given),T/C,"dose: 3.13 mg/kg/injection, schedule: Q01DX009 (ip), vehicle: distilled water + Tween-80",104 % of control
same,T/C,"dose: 6.25 mg/kg/injection, schedule: Q01DX009 (ip), vehicle: distilled water + Tween-80",112 % of control
same,T/C,"dose: 6.25 mg/kg/injection, schedule: Q01DX009 (ip), vehicle: other",114 % of control and 117 % of control
same,T/C,"dose: 12.5 mg/kg/injection, schedule: Q01DX009 (ip), vehicle: distilled water + Tween-80",110 % of control
same,T/C,"dose: 12.5 mg/kg/injection, schedule: Q01DX009 (ip), vehicle: other",114 % of control and 115 % of control
same,T/C,"dose: 25.0 mg/kg/injection, schedule: Q01DX009 (ip), vehicle: distilled water + Tween-80",99 % of control and 110 % of control
same,T/C,"dose: 50.0 mg/kg/injection, schedule: Q01DX009 (ip), vehicle: distilled water + Tween-80",106 % of control and 112 % of control
same,T/C,"dose: 50.0 mg/kg/injection, schedule: Q01DX009 (ip), vehicle: other",93 % of control
same,T/C,"dose: 100.0 mg/kg/injection, schedule: Q01DX009 (ip), vehicle: distilled water + Tween-80",108 % of control
same,T/C,"dose: 100.0 mg/kg/injection, schedule: Q01DX009 (ip), vehicle: other",155 % of control
c1cn2cnnc2n2cnnc12,T/C,[1],100 % of control
same,T/C,[2],105 % of control
same,T/C,[3],97 % of control
O=c1c2ccccc2c2ccccc2n1O,T/C,"dose: 25.0 mg/kg/injection, schedule: Q04DX003 (ip), vehicle: saline with Tween-80",99 % of control
same,T/C,"dose: 50.0 mg/kg/injection, schedule: Q04DX003 (ip), vehicle: saline with Tween-80",99 % of control
same,T/C,[4],97 % of control
same,T/C,[5],97 % of control
CC12CC(C(=O)O)C3(O)CC(C)(C1)CC(C)(C2)C3 (stereo not given) (tested in a mixture with another compound),T/C,"dose: 50.0 mg/kg/injection, schedule: Q01DX009 (ip), vehicle: Klucel (hydroxypropylcellulose) (HPC)",109 % of control
same,T/C,"dose: 100.0 mg/kg/injection, schedule: Q01DX009 (ip), vehicle: Klucel (hydroxypropylcellulose) (HPC)",118 % of control
O=C(CCCCCCCC(=O)Nc1ccc2[nH]c3ccccc3c(=O)c2c1)Nc1ccc2[nH]c3ccccc3c(=O)c2c1,T/C,[1],107 % of control
same,T/C,[2],107 % of control
same,T/C,[3],106 % of control
O=C(Nc1ccc(Cl)c(Cl)c1)Oc1cccnc1,T/C,"dose: 50.0 mg/kg/injection, schedule: Q01DX009 (ip), vehicle: saline with Tween-80",100 % of control
same,T/C,[6],105 % of control
O=C1NC(Cc2ccccc2)C(=O)N2CCCC12 (stereo not given),T/C,"dose: 50.0 mg/kg/injection, schedule: Q01DX009 (ip), vehicle: saline",100 % of control
same,T/C,"dose: 100.0 mg/kg/injection, schedule: Q01DX009 (ip), vehicle: saline",96 % of control
same,T/C,"dose: 200.0 mg/kg/injection, schedule: Q01DX009 (ip), vehicle: saline",101 % of control
O=NNc1nc2ccc([N+](=O)[O-])cc2s1,T/C,"dose: 3.12 mg/kg/injection, schedule: Q01DX009 (ip), vehicle: water",95 % of control
same,T/C,[7],95 % of control
same,T/C,[8],103 % of control and 97 % of control
same,T/C,"dose: 25.0 mg/kg/injection, schedule: Q01DX009 (ip), vehicle: water",106 % of control and 109 % of control and 112 % of control
same,T/C,"dose: 50.0 mg/kg/injection, schedule: Q01DX009 (ip), vehicle: water",112 % of control and 118 % of control
COc1cccc2c1C(=O)c1c(O)c3c(c(O)c1C2=O)C[C@@](O)(C(C)=O)C[C@@H]3OC1CC(NC(C)C)C(O)C(C)O1 (stereo not given in full),T/C,"dose: 0.2 mg/kg/injection, schedule: Q01DX009 (ip), vehicle: water",97 % of control
same,T/C,"dose: 0.39 mg/kg/injection, schedule: Q01DX009 (ip), vehicle: water",103 % of control
same,T/C,"dose: 0.78 mg/kg/injection, schedule: Q01DX009 (ip), vehicle: water",115 % of control
same,T/C,"dose: 4.7 mg/kg/injection, schedule: Q04DX003 (ip), vehicle: water",109 % of control
same,T/C,[7],157 % of control and 174 % of control
same,T/C,"dose: 9.4 mg/kg/injection, schedule: Q04DX003 (ip), vehicle: water",107 % of control and 113 % of control
same,T/C,[8],199 % of control
same,T/C,"dose: 18.8 mg/kg/injection, schedule: Q04DX003 (ip), vehicle: water",120 % of control
same,T/C,"dose: 150.0 mg/kg/injection, schedule: Q04DX003 (ip), vehicle: water",106 % of control and 91 % of control
NC(=O)c1ccc2nccn2c1,T/C,[9],101 % of control
same,T/C,[10],115 % of control
same,T/C,[11],119 % of control
CC(C)(C)OC(=O)NC(CCC(N)=O)C(=O)O (stereo not given),T/C,"dose: 50.0 mg/kg/injection, schedule: Q01DX005 (ip), vehicle: saline",104 % of control
same,T/C,"dose: 100.0 mg/kg/injection, schedule: Q01DX005 (ip), vehicle: saline",104 % of control
same,T/C,"dose: 200.0 mg/kg/injection, schedule: Q01DX005 (ip), vehicle: saline",103 % of control
CN1C(=O)C2C(C1=O)[C@H]1c3ccccc3C=CN1[C@@H]2C(=O)c1ccccc1 (stereo not given in full),T/C,[12],93 % of control
same,T/C,[13],90 % of control
same,T/C,[14],90 % of control
O=C1NC2C3CC(c4ccccc43)C12 (stereo not given),T/C,[12],105 % of control
same,T/C,[13],109 % of control
same,T/C,[14],108 % of control
CC(C)CC(NC(=O)OCC1c2ccccc2-c2ccccc21)C(=O)O (stereo not given),T/C,"dose: 50.0 mg/kg/injection, schedule: Q01DX005 (ip), vehicle: Klucel (hydroxypropylcellulose) (HPC)",101 % of control
same,T/C,"dose: 100.0 mg/kg/injection, schedule: Q01DX005 (ip), vehicle: Klucel (hydroxypropylcellulose) (HPC)",100 % of control
C=CC(O)C(C)C(=O)O (stereo not given),T/C,"dose: 6.25 mg/kg/injection, schedule: Q01DX005 (ip), vehicle: saline",93 % of control
same,T/C,"dose: 12.5 mg/kg/injection, schedule: Q01DX005 (ip), vehicle: saline",95 % of control
same,T/C,"dose: 25.0 mg/kg/injection, schedule: Q01DX005 (ip), vehicle: saline",90 % of control
same,T/C,[2],98 % of control
same,T/C,[3],98 % of control
CCCCCCCCCCCCO[P+](=O)OCCCCCCCCCCCC,T/C,"dose: 50.0 mg/kg/injection, schedule: Q01DX009 (ip), vehicle: saline sonified",110 % of control
same,T/C,"dose: 66.0 mg/kg/injection, schedule: Q01DX009 (ip), vehicle: saline with Tween-80",109 % of control
same,T/C,"dose: 100.0 mg/kg/injection, schedule: Q01DX009 (ip), vehicle: saline sonified",110 % of control
same,T/C,[6],100 % of control and 95 % of control
same,T/C,[4],95 % of control
same,T/C,"dose: 150.0 mg/kg/injection, schedule: Q01DX009 (ip), vehicle: saline with Tween-80",100 % of control
same,T/C,"dose: 200.0 mg/kg/injection, schedule: Q01DX009 (ip), vehicle: saline with Tween-80",90 % of control
same,T/C,[5],91 % of control
same,T/C,"dose: 400.0 mg/kg/injection, schedule: Q01DX009 (ip), vehicle: saline with Tween-80",90 % of control
same,T/C,"dose: 400.0 mg/kg/injection, schedule: Q04DX003 (ip), vehicle: saline with Tween-80",95 % of control
O=C1C(Cl)=C(Nc2cccc3ccccc23)C(=O)c2ccccc21,T/C,"dose: 6.25 mg/kg/injection, schedule: Q01DX005 (ip), vehicle: saline with Tween-80",104 % of control
same,T/C,"dose: 12.5 mg/kg/injection, schedule: Q01DX005 (ip), vehicle: saline with Tween-80",101 % of control
same,T/C,"dose: 25.0 mg/kg/injection, schedule: Q01DX005 (ip), vehicle: saline with Tween-80",109 % of control
same,T/C,[1],108 % of control
CCn1c(O)c(N=O)c(=O)n(CC)c1=S,T/C,"dose: 50.0 mg/kg/injection, schedule: Q04DX002 (ip), vehicle: saline with Tween-80",105 % of control
same,T/C,"dose: 100.0 mg/kg/injection, schedule: Q04DX002 (ip), vehicle: saline with Tween-80",97 % of control
N#Cc1ccccc1N=NNc1ccc(-c2nc(N)nc(N)n2)cc1,T/C,[9],100 % of control
same,T/C,[10],95 % of control
same,T/C,[11],100 % of control
Fc1ccc(CSC(=S)Nc2ccc(Br)cc2)cc1,T/C,"dose: 50.0 mg/kg/injection, schedule: Q01DX009 (ip), vehicle: suspension in saline",100 % of control
same,T/C,"dose: 100.0 mg/kg/injection, schedule: Q01DX009 (ip), vehicle: suspension in saline",108 % of control
same,T/C,"dose: 200.0 mg/kg/injection, schedule: Q01DX009 (ip), vehicle: suspension in saline",101 % of control
CC(O)(c1ccc(Br)cc1)C1CC1 (stereo not given),T/C,"dose: 100.0 mg/kg/injection, schedule: Q01DX001 (ip), vehicle: Klucel (hydroxypropylcellulose) (HPC)",103 % of control
same,T/C,"dose: 200.0 mg/kg/injection, schedule: Q01DX001 (ip), vehicle: Klucel (hydroxypropylcellulose) (HPC)",91 % of control
same,T/C,"dose: 400.0 mg/kg/injection, schedule: Q01DX001 (ip), vehicle: Klucel (hydroxypropylcellulose) (HPC)",96 % of control

# From PubChem BioAssay AID330 (DTP/NCI, 2004)
